Earlier results as cited in paper PMC9177108 (The Oncologist, 2022).

Legend:
patients with RM-NPC = details: 37 recruited patients with RM-NPC; cited from earlier work
NPC patients = details: 58 NPC patients, cited from earlier work
[1] = tested on: relapsed and refractory patients with NPC; details: cited from earlier work
patients with NPC = details: 33 patients with NPC; cited from earlier work
[2] = tested on: patients with advanced NPC; details: first-line regimen; cited from earlier work

Q: What does the source list for `CNC(=O)c1ccccc1Sc1ccc2c(/C=C/c3ccccn3)n[nH]c2c1` [Axitinib]?
A: DCR (patients with RM-NPC): 78.4; ORR (patients with RM-NPC): 19%; median PFS (patients with RM-NPC): 5 months; overall survival (OS) (patients with RM-NPC): 10 months

Q: With `CCN(CC)CCN1CCc2[nH]c(/C=C3\C(=O)Nc4ccc(F)cc43)c(C)c2C1=O` [Famitinib] as the compound, how does the ORR (NPC patients) read?
A: The ORR was 6.9%.

Q: And the “median PFS” value (NPC patients)?
A: Its value is 3.2 months.

Q: And the DCR (NPC patients; at 3 months)?
A: The DCR was 32.8%.

Q: What does the source list for `N#CC1(c2ccc(NC(=O)c3cccnc3NCc3ccncc3)cc2)CCCC1` [apatinib]?
A: ORR ([1]; 51 patients (16/51), no response to first- or second-line chemotherapy): 31.4%; OS ([1]; 51 patients): 16 months; median PFS ([1]; 51 patients): 9 months

Q: For `Cc1ccc(Nc2nccc(N(C)c3ccc4c(C)n(C)nc4c3)n2)cc1S(N)(=O)=O` [pazopanib], which ORR (patients with NPC) is on record?
A: The ORR was 6.1%.

Q: Which “median PFS” value [2] does the source give for cisplatin and 5-fluorouracil here?
A: The value was 11-14 months.

Q: And the response rate [2]?
A: The response rate was 66-78%.
